Earlier results on nine compounds are cited in patent publication US20180153872A1, “HETEROARYL CARBONITRILES FOR THE TREATMENT OF DISEASE” (OPKO Health, Inc., priority 2015, published 2018).

The structures appear in SMILES notation.

The target in the first series is NK1 receptor (Homo sapiens, UniProt P25103). The settings on record: Table I compounds; cited from earlier work.
Chain of NK1 receptor (P25103 whole entry, species assumed): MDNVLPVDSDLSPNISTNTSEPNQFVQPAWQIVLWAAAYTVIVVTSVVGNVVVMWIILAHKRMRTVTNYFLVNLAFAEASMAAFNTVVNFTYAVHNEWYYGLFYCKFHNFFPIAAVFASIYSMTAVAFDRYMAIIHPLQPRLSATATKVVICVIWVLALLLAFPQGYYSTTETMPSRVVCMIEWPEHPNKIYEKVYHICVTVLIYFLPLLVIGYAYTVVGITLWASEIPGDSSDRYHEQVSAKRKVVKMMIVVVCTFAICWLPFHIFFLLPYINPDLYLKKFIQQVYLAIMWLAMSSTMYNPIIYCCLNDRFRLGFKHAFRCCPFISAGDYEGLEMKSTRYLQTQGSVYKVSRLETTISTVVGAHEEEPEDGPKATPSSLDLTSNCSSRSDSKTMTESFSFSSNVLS
`C[C@@H](OC[C@@]1(c2ccccc2)CCC(CO)(n2cn[nH]c2=O)CN1)c1cc(C(F)(F)F)cc(C(F)(F)F)c1` (stereo partly drawn) [Compound 23]: the Ki was 120 pM.
On to `C[C@@H](OC[C@@]1(c2ccccc2)CC[C@](CNS(C)(=O)=O)(n2cn[nH]c2=O)CN1)c1cc(C(F)(F)F)cc(C(F)(F)F)c1` [Compound 15], for which the Ki is 130 pM.
Consider `CC(=NO)C1(n2cn[nH]c2=O)CCC(COC(C)c2cc(C(F)(F)F)cc(C(F)(F)F)c2)(c2ccccc2)NC1` (stereo not drawn) [Compound 54], for which the Ki was 120 pM.
On to `C[C@@H](OC[C@@]1(c2ccccc2)CCC(CO)(n2cnnc2)CN1)c1cc(C(F)(F)F)cc(C(F)(F)F)c1` (stereo partly drawn) [Compound 12], for which the inhibition constant Ki was 50 pM.
For `C[C@@H](OC[C@@]1(c2ccccc2)CCC(C#N)(N2CCC2=O)CN1)c1cc(C(F)(F)F)cc(C(F)(F)F)c1` (stereo partly drawn) [Compound 9], the Ki was 180 pM.
In the case of `C[C@@H](OC[C@@]1(c2ccccc2)CCC(C#N)(N2CCOC2=O)CN1)c1cc(C(F)(F)F)cc(C(F)(F)F)c1` (stereo partly drawn) [Compound 2], the Ki was 120 pM.
`C[C@@H](OC[C@@]1(c2ccccc2)CCC(C(N)=O)(n2cnnc2)CN1)c1cc(C(F)(F)F)cc(C(F)(F)F)c1` (stereo partly drawn) [Compound 10]: the Ki is 100 pM.
For `CCC(=O)C1(n2cn[nH]c2=O)CC[C@@](CO[C@H](C)c2cc(C(F)(F)F)cc(C(F)(F)F)c2)(c2ccccc2)NC1` (stereo partly drawn) [Compound 19], the Ki was 100 pM.

Another series deals with pruritus. The settings on record: several patients with pruritic drug reactions to antineoplastic drugs; cited from earlier work.
In the case of `C[C@@H](O[C@H]1OCCN(Cc2n[nH]c(=O)[nH]2)[C@H]1c1ccc(F)cc1)c1cc(C(F)(F)F)cc(C(F)(F)F)c1` [aprepitant], the “pruritus on the visual analogue scale (VAS)” value was “decrease in pruritus on the visual analogue scale”.

The term Ki denotes a measure of affinity in units of concentration, obtained from inhibition or displacement.
